ChEMBL document CHEMBL1155181, “Structure-based design of substituted biphenyl ethylene ethers as ligands binding in the hydrophobic pocket of gp41 and blocking the helical bundle formation” (Bioorg Med Chem Lett, 2009)

How the values were obtained:
[1] = system: Human immunodeficiency virus; experiment: Inhibition of HIV gp41 hexamer bundle formation at 50 uM after 30 mins by size exclusion chromatography assay
[2] = Inhibition of HIV gp41 hexamer bundle formation after 30 mins by size exclusion chromatography assay; parameters: species or system Human immunodeficiency virus
[3] = system: Human immunodeficiency virus; experiment: Inhibition of HIV gp41 six-helix bundle formation at 25 uM by FRET-based assay relative to C18Aib
[4] = system: Human immunodeficiency virus; experiment: Inhibition of HIV gp41 six-helix bundle formation at 25 uM by FRET-based assay relative to ADS--J1
[5] = Inhibition of HIV gp41 hexamer bundle formation after 30 mins by SEC-HPLC assay; parameters: species or system Human immunodeficiency virus
[6] = Inhibition of HIV gp41 hexamer bundle formation by ELISA; parameters: species or system Human immunodeficiency virus

Row | inhibition [1] | IC50 [2] | IC50 ([2]; read-out: IC50) | inhibition [3] | inhibition [4] | IC50 [5] | IC50 [6] | Compound
1 | 100% | Not Active | – | – | – | – | – | CC(C)(C)OC(=O)n1ccc2c(CCOc3cccc(-c4cccc(-c5nnn[nH]5)c4)c3)cccc21
2 | 95% | – | 31 µM | 75% | 67% | – | – | COC(=O)c1ccc(CCOc2cccc(-c3cccc(-c4nn[nH]n4)c3)c2)c2ccccc12
3 | – | – | – | – | – | 0.9 µM | 1 µM | O=C(O)c1ccc(-c2c3nc(c(-c4ccc(C(=O)O)cc4)c4ccc([nH]4)c(-c4ccc(C(=O)O)cc4)c4ccc([nH]4)c(-c4ccc(C(=O)O)cc4)c4nc2C=C4)C=C3)cc1
4 | 100% | – | 32.9 µM | – | – | – | – | O=S(=O)(c1ccccc1)n1ccc2c(CCOc3cccc(-c4cccc(-c5nnn[nH]5)c4)c3)cccc21
